One assay has as its target PTRGER4 (EP4) (Homo sapiens (Human), UniProt P35408). Kind of assay: hEP4 b-arrestin assay (PathHunter HEK 293 PTGER4 b-arrestin cells). Type of assay: cell-based. An outline of the steps: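 Antagonist mode: compound is given 15 min at 37 °C, then 20 nM (final) PGE2 for 120 min, in HEK293 cells stably expressing EP4 fused to ProLink and β-arrestin 2 fused to EA. Recruitment read as β-gal luminescence after 1 h reagent at room temperature, as percent of DMSO control.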

The next assay addresses PTGER2 (EP2) (Homo sapiens (Human), UniProt P43116). Kind of assay: hEP2 b-arrestin assay (PathHunter HEK 293 PTGER2 b-arrestin cells). In kind it is cell-based. An outline of the steps: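 Readout is β-galactosidase complementation luminescence, expressed as percent of DMSO control (duplicates). PathHunter HEK293 EP2/β-arrestin 2 cells, grown 24 h, received compound for 15 min at 37 °C before a 120 min challenge with PGE2 at 5 μM final, followed by 1 h detection at room temperature.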

The mark [1] stands for this setting: hEP4 b-arrestin assay (values without asterisk).
Where [2] appears, read: hEP2 b-arrestin assay (values without asterisk).
[3] abbreviates: antagonistic activity on hEP4, mean where measured multiple times.
Where [4] appears, read: antagonistic activity on hEP2, mean where measured multiple times.

By IC50 is commonly meant the concentration at which inhibition is half-maximal. Higher therefore signals lower potency.

Sequence of PTGER2 (EP2) (P43116 whole entry): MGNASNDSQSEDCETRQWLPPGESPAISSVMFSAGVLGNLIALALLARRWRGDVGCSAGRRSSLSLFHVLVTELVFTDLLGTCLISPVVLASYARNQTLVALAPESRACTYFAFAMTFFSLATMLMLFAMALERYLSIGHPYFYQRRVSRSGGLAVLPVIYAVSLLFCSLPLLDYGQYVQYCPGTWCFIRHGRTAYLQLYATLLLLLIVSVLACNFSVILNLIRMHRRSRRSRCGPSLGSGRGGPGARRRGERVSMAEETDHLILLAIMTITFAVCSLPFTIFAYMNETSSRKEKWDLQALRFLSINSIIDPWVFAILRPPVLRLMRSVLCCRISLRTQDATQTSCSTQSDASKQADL
Sequence of PTRGER4 (EP4) (P35408 whole entry, looked up, the tested form may be a part): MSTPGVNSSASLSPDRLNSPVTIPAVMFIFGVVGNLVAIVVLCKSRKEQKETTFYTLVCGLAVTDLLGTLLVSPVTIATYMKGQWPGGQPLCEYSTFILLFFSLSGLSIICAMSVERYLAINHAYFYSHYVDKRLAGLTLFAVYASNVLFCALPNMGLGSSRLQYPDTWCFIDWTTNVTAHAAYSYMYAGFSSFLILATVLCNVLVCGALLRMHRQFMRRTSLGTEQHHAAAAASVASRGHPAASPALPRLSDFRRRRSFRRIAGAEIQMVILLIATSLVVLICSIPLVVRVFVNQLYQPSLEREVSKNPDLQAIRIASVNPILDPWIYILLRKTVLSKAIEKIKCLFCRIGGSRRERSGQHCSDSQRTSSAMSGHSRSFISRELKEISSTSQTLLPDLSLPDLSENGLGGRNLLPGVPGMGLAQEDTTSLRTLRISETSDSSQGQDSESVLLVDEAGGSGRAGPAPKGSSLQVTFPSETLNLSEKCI

Regarding `COc1ccc(F)c2c1cc(C#N)n2CCNc1cc(-c2ccc(C(=O)O)c(SC(C)C)c2)ncn1` [Example 937, 4-{6-[2-(2-Cyano-7-fluoro-4-methoxy-indol-1-yl)-ethylamino]-pyrimidin-4-yl}-2-isopropylsulfanyl-benzoic acid], the half-inhibitory concentration (IC50) against PTRGER4 (EP4) (setting [1]) stood at 13 nM; at PTGER2 (EP2) (setting [2]), 21 nM.
The corresponding values for `CCOc1cc(-c2cc(NCCn3c(C#N)cc4c(OC)ccc(F)c43)ncn2)sc1C(=O)OCC(=O)N(C)C` [Example 1044, 5-{6-[2-(2-Cyano-7-fluoro-4-methoxy-indol-1-yl)-ethylamino]-pyrimidin-4-yl}-3-ethoxy-thiophene-2-carboxylic acid dimethylcarbamoylmethyl ester] are 3 nM and 9 nM.
For `COc1ccc(F)c2c1cc(C)n2CCNc1cc(-c2cc(O)c(C(=O)O)s2)ncn1` [Example 799, 5-{6-[2-(7-Fluoro-4-methoxy-2-methyl-indol-1-yl)-ethylamino]-pyrimidin-4-yl}-3-hydroxy-thiophene-2-carboxylic acid], in that order: 59 nM and 21 nM.
The corresponding values for `CCc1cc(-c2cc(NCCn3c(C#N)cc4c(OC)ccc(F)c43)ncn2)ccc1O` [Example 822, 1-{2-[6-(3-Ethyl-4-hydroxy-phenyl)-pyrimidin-4-ylamino]-ethyl}-7-fluoro-4-methoxy-1H-indole-2-carbonitrile] are 5 nM and 6 nM.
As for `CCOc1cc(-c2cc(NCCn3c(C#N)cc4c(OC)ccc(F)c43)ncn2)ccc1C(=O)O` [Example 807, 4-{6-[2-(2-Cyano-7-fluoro-4-methoxy-indol-1-yl)-ethylamino]-pyrimidin-4-yl}-2-ethoxy-benzoic acid], the figures for the IC50 on PTRGER4 (EP4) (setting [1]) and against PTGER2 (EP2) (setting [2]) were 55 nM and 32 nM, respectively.
Consider `CCNc1cc(-c2cc(NCCn3c(C)cc4ccc(OC)cc43)ncn2)ccc1C(=O)O` [compound 170, 2-Ethylamino-4-{6-[2-(6-methoxy-2-methyl-indol-1-yl)-ethylamino]-pyrimidin-4-yl}-benzoic acid], for which the results for the IC50 against PTRGER4 (EP4) (setting [3]) and against PTGER2 (EP2) (setting [4]) were 350 nM and 1 nM, respectively.
Regarding `COc1ccc(F)c2c1cc(C#N)n2CCNc1cc(-c2cnc3c(ccn3C)c2)ncn1` [Example 980, 7-Fluoro-4-methoxy-1-{2-[6-(1-methyl-1H-pyrrolo[2,3-b]pyridin-5-yl)-pyrimidin-4-ylamino]-ethyl}-1H-indole-2-carbonitrile], the 50% inhibitory concentration (IC50) at PTRGER4 (EP4) (setting [1]) was determined as 12 nM; at PTGER2 (EP2) (setting [2]), 21 nM.
Consider `CCOc1cc(-c2cc(NCCn3c(C#N)cc4c(Cl)cc(F)c(F)c43)ncn2)ccc1OCC(=O)O` [Example 914, (4-{6-[2-(4-Chloro-2-cyano-6,7-difluoro-indol-1-yl)-ethylamino]-pyrimidin-4-yl}-2-ethoxy-phenoxy)-acetic acid], for which the IC50 came out at 68 nM on PTRGER4 (EP4) (setting [1]) and 32 nM against PTGER2 (EP2) (setting [2]).
Consider `COc1ccc(F)c2c1cc(C#N)n2CCNc1cc(-c2ccc(C(=O)O)c(OCC(C)C)c2)ncn1` [Example 949, 4-{6-[2-(2-Cyano-7-fluoro-4-methoxy-indol-1-yl)-ethylamino]-pyrimidin-4-yl}-2-isobutoxy-benzoic acid], for which the half-maximal inhibitory concentration (IC50) against PTRGER4 (EP4) (setting [1]) was 14 nM; on PTGER2 (EP2) (setting [2]), 7 nM.
On to `COc1ccc(F)c2c1cc(C)n2CCNc1cc(-c2ccc3c(C(=O)O)n[nH]c3c2)ncn1` [compound 389], for which the IC50 against PTRGER4 (EP4) (setting [3]) came out at 734 nM; against PTGER2 (EP2) (setting [4]), 26 nM.
As for `CCc1cc(-c2cc(NCCn3c(C)cc4cc(F)cc(F)c43)ncn2)ccc1C(=O)O` [compound 122, 4-{6-[2-(5,7-Difluoro-2-methyl-indol-1-yl)-ethylamino]-pyrimidin-4-yl}-2-ethyl-benzoic acid], the IC50 against PTRGER4 (EP4) (setting [3]) is 974 nM; against PTGER2 (EP2) (setting [4]), 9 nM.
Turning to `COc1cc(Cl)cc2c1cc(C)n2CCNc1cc(-c2cc(OC(C)C)c(C(=O)O)s2)ncn1` [Example 869, 5-{6-[2-(6-Chloro-4-methoxy-2-methyl-indol-1-yl)-ethylamino]-pyrimidin-4-yl}-3-isopropoxy-thiophene-2-carboxylic acid], the results for the IC50 at PTRGER4 (EP4) (setting [1]) and against PTGER2 (EP2) (setting [2]) were 8 nM and 2 nM, respectively.
With `CCCOc1cc(-c2cc(NCCn3c(C#N)cc4c(OC)ccc(F)c43)ncn2)ccc1C(=O)O` [Example 950, 4-{6-[2-(2-Cyano-7-fluoro-4-methoxy-indol-1-yl)-ethylamino]-pyrimidin-4-yl}-2-propoxy-benzoic acid], the IC50 worked out at 42 nM on PTRGER4 (EP4) (setting [1]) and 18 nM against PTGER2 (EP2) (setting [2]).
For the compound `COc1ccc(F)c2c1cc(C)n2CCNc1cc(-c2ccc3ncccc3c2)ncn1` [compound 384], the half-inhibitory concentration (IC50) at PTRGER4 (EP4) (setting [3]) is 60 nM; against PTGER2 (EP2) (setting [4]) it was 13 nM.
The corresponding values for `CCOc1cc(-c2cc(NCCn3c(C)cc4c(Cl)cc(F)cc43)ncn2)ccc1C(=O)O` [compound 280] are 652 nM and 16 nM.
Take `Cc1cc(-c2ccc(-c3cc(NCCn4c(C)cc5c(C)cc(F)cc54)ncn3)cc2)n[nH]1` [compound 178, [2-(6-Fluoro-2,4-dimethyl-indol-1-yl)-ethyl]-{6-[4-(5-methyl-1H-pyrazol-3-yl)-phenyl]-pyrimidin-4-yl}-amine]: the IC50 against PTRGER4 (EP4) (setting [3]) was determined as 168 nM; against PTGER2 (EP2) (setting [4]), 18 nM.
The corresponding values for `COc1ccc(F)c2c1cc(C)n2CCNc1cc(-c2ccc(N)cc2)ncn1` [Example 4, [6-(4-amino-phenyl)-pyrimidin-4-yl]-[2-(7-fluoro-4-methoxy-2-methyl-indol-1-yl)-ethyl]-amine] are 412 nM and 22 nM.
On to `CCOc1cc(-c2cc(NCCn3c(C)cc4c(OC)ccc(F)c43)ncn2)sc1/C=C/C(=O)O` [Example 1016, (E)-3-(3-Ethoxy-5-{6-[2-(7-fluoro-4-methoxy-2-methyl-indol-1-yl)-ethylamino]-pyrimidin-4-yl}-thiophen-2-yl)-acrylic acid], for which the IC50 against PTRGER4 (EP4) (setting [1]) and against PTGER2 (EP2) (setting [2]) was 5 nM in each case.
`Cc1ccc(F)c2c1cc(C)n2CCNc1cc(-c2ccc(-c3c[nH]cn3)cc2)ncn1` [compound 72, [2-(7-Fluoro-2,4-dimethyl-indol-1-yl)-ethyl]-{6-[4-(1H-imidazol-4-yl)-phenyl]-pyrimidin-4-yl}-amine]: the half-maximal inhibitory concentration (IC50) amounted to 28 nM at PTRGER4 (EP4) (setting [3]) and 45 nM against PTGER2 (EP2) (setting [4]).
In the case of `COc1ccc(F)c2c1cc(C#N)n2CCNc1cc(-c2ccnc(N3CCOCC3)c2)ncn1` [Example 1003, 7-Fluoro-4-methoxy-1-{2-[6-(2-morpholin-4-yl-pyridin-4-yl)-pyrimidin-4-ylamino]-ethyl}-1H-indole-2-carbonitrile], the IC50 against PTRGER4 (EP4) (setting [1]) is 131 nM; on PTGER2 (EP2) (setting [2]) it was 55 nM.
Turning to `COc1ccc(F)c2c1cc(C)n2CCNc1cc(-c2ccc3[nH]c(=O)[nH]c3c2)ncn1` [compound 115], the 50% inhibitory concentration (IC50) was 742 nM against PTRGER4 (EP4) (setting [3]) and 56 nM against PTGER2 (EP2) (setting [4]).
On to `CCOc1cc(-c2cc(NCCn3c(C#N)cc4c(OC)ccc(F)c43)ncn2)sc1CCC(=O)O` [Example 932, 3-(5-{6-[2-(2-Cyano-7-fluoro-4-methoxy-indol-1-yl)-ethylamino]-pyrimidin-4-yl}-3-ethoxy-thiophen-2-yl)-propionic acid], for which the IC50 against PTRGER4 (EP4) (setting [1]) came out at 3 nM; against PTGER2 (EP2) (setting [2]), 14 nM.
For the compound `CCOc1cc(-c2cc(NCCn3c(C)cc4c(F)c(F)cc(F)c43)ncn2)sc1C(=O)O` [compound 275], the 50% inhibitory concentration (IC50) was 25 nM at PTRGER4 (EP4) (setting [3]) and 1 nM against PTGER2 (EP2) (setting [4]).
Regarding `COc1ccc(F)c2c1cc(C)n2CCNc1cc(-c2ccc(-c3noc(C)n3)cc2)ncn1` [compound 303, [2-(7-Fluoro-4-methoxy-2-methyl-indol-1-yl)-ethyl]-{6-[4-(5-methyl-[1,2,4]oxadiazol-3-yl)-phenyl]-pyrimidin-4-yl}-amine], the results for the IC50 against PTRGER4 (EP4) (setting [3]) and against PTGER2 (EP2) (setting [4]) were 322 nM and 33 nM, respectively.
Regarding `COc1ncc(-c2cc(NCCn3c(C#N)cc4c(OC)ccc(F)c43)ncn2)cn1` [Example 991, 7-Fluoro-4-methoxy-1-[2-(2′-methoxy-[4,5]bipyrimidinyl-6-ylamino)-ethyl]-1H-indole-2-carbonitrile], the IC50 at PTRGER4 (EP4) (setting [1]) is 540 nM; against PTGER2 (EP2) (setting [2]), 142 nM.
Take `CCOc1cc(-c2cc(NCCn3c(C)cc4c(F)ccc(Cl)c43)ncn2)ccc1C(=O)O` [compound 152, 4-{6-[2-(7-Chloro-4-fluoro-2-methyl-indol-1-yl)-ethylamino]-pyrimidin-4-yl}-2-ethoxy-benzoic acid]: the concentration for half-maximal inhibition (IC50) on PTRGER4 (EP4) (setting [3]) amounted to 786 nM; against PTGER2 (EP2) (setting [4]), 3 nM.
For the compound `CNc1cc(-c2cc(NCCn3c(C)cc4c(F)ccc(F)c43)ncn2)ccc1C(=O)O` [compound 134, 4-{6-[2-(4,7-Difluoro-2-methyl-indol-1-yl)-ethylamino]-pyrimidin-4-yl}-2-methylamino-benzoic acid], the concentration for half-maximal inhibition (IC50) was found to be 174 nM at PTRGER4 (EP4) (setting [3]) and 1 nM at PTGER2 (EP2) (setting [4]).
For the compound `COc1ccc(F)c2c1cc(C#N)n2CCNc1cc(-c2ccc(-c3nc[nH]c3C)cc2)ncn1` [Example 819, 7-Fluoro-4-methoxy-1-(2-{6-[4-(5-methyl-1H-imidazol-4-yl)-phenyl]-pyrimidin-4-ylamino}-ethyl)-1H-indole-2-carbonitrile], the concentration for half-maximal inhibition (IC50) against PTRGER4 (EP4) (setting [1]) was found to be 2 nM; on PTGER2 (EP2) (setting [2]), 7 nM.
In the case of `COc1cccc2c1cc(C)n2CCNc1cc(-c2ccc(C3(C(=O)O)CC3)c(F)c2)ncn1` [compound 386], the IC50 is 559 nM against PTRGER4 (EP4) (setting [3]) and 40 nM against PTGER2 (EP2) (setting [4]).
The corresponding values for `COc1cc(F)cc2c1cc(C)n2CCNc1cc(-c2ccc(C(=O)O)c(C3CC3)c2)ncn1` [compound 382] are 359 nM and 27 nM.
For the compound `COc1cc(-c2cc(NCCn3c(C#N)cc4c(OC)ccc(F)c43)ncn2)sc1C1(O)COC1` [Example 826, 7-Fluoro-1-(2-{6-[5-(3-hydroxy-oxetan-3-yl)-4-methoxy-thiophen-2-yl]-pyrimidin-4-ylamino}-ethyl)-4-methoxy-1H-indole-2-carbonitrile], the IC50 against PTRGER4 (EP4) (setting [1]) came out at 8 nM; at PTGER2 (EP2) (setting [2]), 13 nM.
